According to PMC8710297, “Identification of potent SENP1 inhibitors that inactivate SENP1/JAK2/STAT signaling pathway and overcome platinum drug resistance in ovarian cancer” (Clinical and Translational Medicine, 2021):

Tested on: STAT3
Assay: IHC staining of pSTAT3 in xenograft tumor samples
Assay type: in vivo, mice
Conditions: IGROV1 CR xenograft tumor samples
Description: Cell viability was measured by SRB assay. […] Data were represented as mean ± SD (n = 3). (B) Colony formation assay in cells treated as indicated. […] (D) Growth curves of xenograft tumors are shown in (C). Data are represented as means ± SEM, n = 6 mice/group. **p < 0.01. […] (F) IGROV1 CR xenograft tumor growth curve by indicated treatments. Data are represented as means ± SD, n = 6 tumors/group. **p < 0.01. (G) Immunohistochemistry (IHC) staining against pSTAT3 antibodies of tumor samples from four groups of mice (magnification, 200x) (Upper).
Immun ohistochemical (IHC) sta i n in g an d scor ing we r e performed as prev iou sl y described (2).
The qu anti ficatio n of immunohistochemical sta in ing wa s scored blindly at lea st by two independent obser vers. Antibodies used in IHC as say are: SENP1 (ab108981, Abcam, Cambridge, UK), JA K 2 , p‐STAT 3 (ab76315; Abcam), Bc l‐xL (2764S; Cell Signaling Technology) (#3776, Cell Signaling Technologies, Danvers, MA, USA).
11. Cellular thermal shift assay and in vitro thermal shift assay
Cellular thermal shift assay was as previously described (5). Briefly, cells were pretreated with MG132 (10 µM, 1 hour) then incubated wi th DMSO, Mc, UA or UAMMC9 (2 µM) for 4 hours. […]

C[C@H]1[C@H](C)CC[C@]2(C(=O)NCC(=O)N(C)CCO)CC[C@]3(C)C(=CC[C@@H]4[C@@]5(C)CC[C@H](O)C(C)(C)[C@@H]5CC[C@]43C)[C@H]12 [UAMMC9]
activation of STAT3 in vivo (pSTAT3 IHC): inhibit the activation of STAT3
